The record followed here is US6482850B2, “Hydrolysis-promoting hydrophobic taxane derivatives” (priority 1995, dated 2002).

Molecules are shown by their SMILES.

The GI50 is the concentration at which growth is held to half of that of the control.

One data set has as its system CDF1 female mice. In words: Acute toxicity of liposomal paclitaxel or paclitaxel derivative given intraperitoneally. Conditions: liposomes, i.p. As to the method: Moreover, liposomes containing either paclitaxel or a 2′-(2-bromo) hydrophobic paclitaxel derivative (containing either a six-carbon (C-6), C-8, C-12, C-14 or C-16 acyl chain at the 2′ position) were administered, intraperitoneally in 5 doses, to SCID (severe combined inimunodeficiency) mice bearing a human ovarian cancer (OvCar 3), at a dose of 12.5 mg paclitaxel per kg or a dose of 50 mg paclitaxel derivative per kg.
CDF1 female mice, 5 or 10 mice per group, were intraperitoneally administered either paclitaxel-, 2′-C6-paclitaxel derivative-, or 2′-C16-paclitaxel derivative-containing liposomes, in a single dose, or 5 doses, of either 12.5, 25, 50, 100, 200, 300. 400 or 500 mg of paclitaxel or paclitaxel derivative per kg of mouse body weight.

Data set [1] relates to MCF-7/ADR (adriamycin-resistant). Kind of data set: In vitro sensitivity, sulforhodamine B cytotoxicity assay, MCF-7/ADR (Table 2). It is filed as cell-based, human. Conditions: 72-hour incubation; averaged from two separate experiments. For orientation: The SRB assay estimates cell density from bound dye.
Data set [2] relates to HT-29 human colon carcinoma cells. Kind of data set: In vitro sensitivity, sulforhodamine B cytotoxicity assay, HT-29 (Table 2). In kind it is cell-based. Conditions: 72-hour incubation; averaged from two separate experiments.
For data set [3], the system named is MCF-7 human breast carcinoma. In words: In vitro sensitivity, sulforhodamine B cytotoxicity assay, MCF-7 (Table 2). Conditions: 72-hour incubation; averaged from two separate experiments. In kind it is cell-based.
Data set [4] has as its system A-549 human lung carcinoma. Kind of data set: In vitro sensitivity, sulforhodamine B cytotoxicity assay, A-549 (Table 2). Conditions: 72-hour incubation; averaged from two separate experiments. In kind it is cell-based. As to the method:
Briefly, 96-well microtiter plates were inoculated (100 μL/well) with 5×10^3 (A549) or 7.5×10^3 (OVCAR-3) cells/well, in RPMI-1640 supplemented with 10% FBS (growth media). The plates were incubated for 24 hr at 37° C., 100% humidity and 5% CO2. At 24 hours, growth media (100 μL) was added to designated “time zero” plates. Similarly, serial dilutions of drug or vehicle (in media) were added (100 μL aliquots) to the test and vehicle control wells at twice the predetermined highest concentration. […] Cells (including time zero plates) were then fixed with 50 μL of 50% trichloroacetic acid (TCA) (w:v) for adherent cells or 80% TCA for suspended cells, and plates refrigerated at 4° C. for 1 hr. […] The plates were then air-dried for 24 hr.

For data set [5], the system named is human MCF-7 breast carcinoma cells. In words: HTD cytotoxicity, growth inhibition of MCF-7 cells (Table 1). In kind it is cell-based. Conditions: MCF-7, 72-hour incubation; ± standard deviation.

Turning to `CCCCC(Br)C(=O)O[C@@H](C(=O)O[C@H]1C[C@@]2(O)[C@@H](OC(=O)c3ccccc3)[C@@H]3[C@]4(OC(C)=O)CO[C@@H]4C[C@H](O)[C@@]3(C)C(=O)[C@H](OC(C)=O)C(=C1C)C2(C)C)[C@@H](NC(=O)c1ccccc1)c1ccccc1` (mixture of isomers) [2′-2-Bromohexanoyl-, 2′-(R)-[(±)-2-Bromohexanoyl] taxol], the “number of mice that died within the first 14 days post-injection/total” value is recorded as 0/5 in the data set on CDF1 female mice (five doses of 50 mg/kg); 0/2 with CDF1 female mice (single dose 200 mg/kg); 4/5 with CDF1 female mice (single dose 300 mg/kg); 5/5 in the data set on CDF1 female mice (single dose 400 mg/kg); 5/5 in the data set with CDF1 female mice (single dose 500 mg/kg). Moreover, the GI50 in data set [1] is above 10 µM; in data set [2], 2.4 nM; in data set [3], 2.3 nM; in data set [4] it was 3.9 nM; in data set [5] it was 3 ± 0.2 nM.
The molecule `CCCCCC(=O)OC(C(=O)OC1CC2(O)C(OC(=O)c3ccccc3)C3C4(OC(C)=O)COC4CC(OC(=O)CCCCC)C3(C)C(=O)C(OC(C)=O)C(=C1C)C2(C)C)C(NC(=O)c1ccccc1)c1ccccc1` (centres unmarked) [2′,7-diHexanoyl-] showed a GI50 in data set [5] above 10000 nM.
Take `CCCCCCC(Br)C(=O)O[C@@H](C(=O)O[C@H]1C[C@@]2(O)[C@@H](OC(=O)c3ccccc3)[C@@H]3[C@]4(OC(C)=O)CO[C@@H]4C[C@H](O)[C@@]3(C)C(=O)[C@H](OC(C)=O)C(=C1C)C2(C)C)[C@@H](NC(=O)c1ccccc1)c1ccccc1` (some centres unmarked) [2′-2-Bromo-C8-Paclitaxel, 2′-(2-bromocapryanoyl) paclitaxel]: the GI50 is above 10 µM in data set [1], 3.1 nM in data set [2], 2.9 nM in data set [3] and 4.4 nM in data set [4].
Taken in the same sequence, the figures for `CCCCCCCCCCC(Br)C(=O)OC(C(=O)OC1CC2(O)C(OC(=O)c3ccccc3)C3C4(OC(C)=O)COC4CC(O)C3(C)C(=O)C(OC(C)=O)C(=C1C)C2(C)C)C(NC(=O)c1ccccc1)c1ccccc1` (centres unmarked) [2′-2-Bromo-C12-Paclitaxel, 2′-(2 bromolauranoyl) paclitaxel] were above 10 µM, 3.2 nM, 2.8 nM and 4.4 nM.
Taken in the same sequence, the figures for `CCCCCCCCCCCCC(Br)C(=O)OC(C(=O)OC1CC2(O)C(OC(=O)c3ccccc3)C3C4(OC(C)=O)COC4CC(O)C3(C)C(=O)C(OC(C)=O)C(=C1C)C2(C)C)C(NC(=O)c1ccccc1)c1ccccc1` (centres unmarked) [2′-2-Bromo-C14-Paclitaxel, 2′-(2 bromomyrstanoyl) paclitaxel] were above 10 µM, 20.6 nM, 16 nM and 31.7 nM.
In turn, `CC(=O)OC1C(=O)C2(C)C(O)CC3OCC3(OC(C)=O)C2C(OC(=O)c2ccccc2)C2(O)CC(OC(=O)C(OC(=O)CCCCCBr)C(NC(=O)c3ccccc3)c3ccccc3)C(C)=C1C2(C)C` (centres unmarked) [2′-6-Bromohexanoyl-] registered a GI50 in data set [5] above 10000 nM.
The same measure, in the same setting: the figure for `CCCCCC(=O)OC1CC2OCC2(OC(C)=O)C2C(OC(=O)c3ccccc3)C3(O)CC(OC(=O)C(OC(C)=O)C(NC(=O)c4ccccc4)c4ccccc4)C(C)=C(C(OC(C)=O)C(=O)C12C)C3(C)C` (centres unmarked) [2′-Acetyl-7-Hexanoyl-] is 4460 ± 60 nM; for `CCCCCC(=O)OC(C(=O)OC1CC2(O)C(OC(=O)c3ccccc3)C3C4(OC(C)=O)COC4CC(O)C3(C)C(=O)C(OC(C)=O)C(=C1C)C2(C)C)C(NC(=O)c1ccccc1)c1ccccc1` (centres unmarked) [2′-Hexanoyl-] it is 500 ± 151 nM.
Same read-out and setting: the value for `CCCCC(Br)C(=O)OC1CC2OCC2(OC(C)=O)C2C(OC(=O)c3ccccc3)C3(O)CC(OC(=O)C(O)C(NC(=O)c4ccccc4)c4ccccc4)C(C)=C(C(OC(C)=O)C(=O)C12C)C3(C)C` (centres unmarked) [7-2-Bromohexanoyl-] was 4.6 ± 0.1 nM; that for `CC(=O)OC1C(=O)C2(C)C(OC(=O)CCCCCBr)CC3OCC3(OC(C)=O)C2C(OC(=O)c2ccccc2)C2(O)CC(OC(=O)C(O)C(NC(=O)c3ccccc3)c3ccccc3)C(C)=C1C2(C)C` (centres unmarked) [7-6-Bromohexanoyl-] was 18 ± 2 nM.
In data set [5], `CCCCCC(=O)OC1CC2OCC2(OC(C)=O)C2C(OC(=O)c3ccccc3)C3(O)CC(OC(=O)C(O)C(NC(=O)c4ccccc4)c4ccccc4)C(C)=C(C(OC(C)=O)C(=O)C12C)C3(C)C` (centres unmarked) [7-Hexanoyl-] gave a concentration for 50% growth inhibition (GI50) of 27 ± 19 nM.
